Experiments:
[1] = system: TSH; test: Suppression of TSH by Tetrac in humans
Method: A patient receiving 200 μg/day dose of T4 was withdrawn from T4 treatment and treated with Tetrac for 21 days with a dose of 2100 μg/day.

[2] = system: hypothyroid rats; test: Heart weight and heart/body weight in hypothyroid rats infused with Tetrac or T4; assay type: in vivo, rat; conditions: for Heart / Heart/BW (%): hypothyroid rats, mean ± SEM; for Heart: continuous minipump infusion
Method: (§1) Seventy-nine male SIVZ rats were purchased from the breeder (Institut für Labortierkunde des Universität Zürich, Zürich, Switzerland). They were rendered hypothyroid by a single injection of [^131I]Na (100 μCi/rat) and before and throughout the experiment 0.02% 2-mercapto-1-methylimidazol (MMI) was added to drinking water. In order to have an euthyroid control group of similar weight and identical age, 10 rats received only MMI in the drinking water and 2 weeks before implanting the minipumps, MMI was withdrawn. Osmotic minipumps (secretion rate 0.25 μl/hour, duration 14 days) were implanted intraperitoneally (i.p.) 2 months after the injection of [^131I]Na. The minipumps were filled with T4 or Tetrac dissolved in 0.05 N NaOH, 2% BSA and 100,000 cpm [^125I]T4 or [^125I]Tetrac as control of their secretion rates. The infusion lasted 13 days. 0, 1.5, 4.5, 13.5 and 40.5 nmol Tetrac/day/100 g or 0.5, 1.5, 4.5 and 13.5 nmol T4/day/100 g bodyweight (BW) (n=4/dose) were infused. An euthyroid control group was included. The animals were weighed every 2 days. Rats were sacrificed by decapitation and blood was collected and stored at −200° C. until use. Tissues (liver, heart, brown adipose tissue, cerebral cortex and pituitary) were removed rapidly, frozen in liquid nitrogen and stored at −700° C. until use.

[3] = system: SERCA 2a mRNA; test: Northern blot, SERCA 2a mRNA in heart; assay type: in vivo, rat; conditions: FIG. 2b, compared to T4, p<0.001
Method: as §1, with “Rats were sacrificed by decapitation and blood was collected and stored at −200° C. until use. Tissues (liver, heart, brown adipose tissue, cerebral cortex and pituitary) were removed rapidly, frozen in liquid nitrogen and stored at −700° C. until use.” left out
(§2) The amount of labeled mRNA was quantified by scanning laser densitometry (Phosphorimager, Molecular Dynamics; Sunnyvale, USA). Variations in RNA loading and membrane transfer were corrected by densitometric quantification of a negative photograph of 28S and 18S ribosomal RNA bands from ethidium bromide stained RNA gels. […]

[4] = system: monodeiodinase type 2 mRNA; test: Northern blot, monodeiodinase type 2 mRNA in pituitary; assay type: in vivo, rat; conditions: FIG. 5b, compared with T4, p=0.001
Method: as §1, with “Rats were sacrificed by decapitation and blood was collected and stored at −200° C. until use. Tissues (liver, heart, brown adipose tissue, cerebral cortex and pituitary) were removed rapidly, frozen in liquid nitrogen and stored at −700° C. until use.” left out
as §2

[5] = target: T1, Monodeiodinase type 2 (Rattus norvegicus, UniProt P70551); test: Addition of Tetrac to monodeiodinase type 2 assay with microsomal protein from brain cortex; assay type: biochemical; conditions: 1 fmol Tetrac/μg protein added
T1 construct: monodeiodinase type 2 assay using microsomol protein from brain cortex; from tissue; host or cells: brain cortex microsomal protein
T1 sequence (P70551 1-266): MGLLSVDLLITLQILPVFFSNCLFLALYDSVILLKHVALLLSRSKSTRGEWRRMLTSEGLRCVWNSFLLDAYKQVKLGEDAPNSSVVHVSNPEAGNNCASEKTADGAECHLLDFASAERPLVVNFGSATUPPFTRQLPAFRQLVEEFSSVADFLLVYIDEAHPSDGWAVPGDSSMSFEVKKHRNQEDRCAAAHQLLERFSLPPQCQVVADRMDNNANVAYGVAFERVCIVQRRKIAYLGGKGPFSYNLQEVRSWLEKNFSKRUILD
Method: Monodeiodinase type 1 and 2 activities. Monodeiodinase type 1 and type 2 activities were determined in tissue homogenates by measuring the release of radioiodide from [^125I]rT3 according to the method of Leonard and Rosenberg (Leonard, J. L. et al. Endocrinology (1980) 106: 444-451).
Monodeiodinase type 1 activity was measured in liver homogenates using 1 μM rT3 and 1 mM DTT with 10 min of incubation, whereas for heart, 0.01 μM rT3 and 10 mM DTT with 1 hour of incubation. Monodeiodinase type 2 activity was measured in brown adipose tissue (BAT) and cerebral cortex using 1 nM rT3, 10 mM DTT and 1 mM propylthiouracil (PTU) with 1 hour of incubation. Protein concentrations were measured by the method of Bradford (Bio-Rad Laboratories GmbH, Munich, Germany) with bovine gammaglobulin as the protein standard. In order to study the effect of circulating Tetrac on the enzyme activities, 2 rats were injected intraperitoneally with 10 μCi ^125I Tetrac and killed 6 hours later. The tissue homogenates were extracted with 3 volumes of ethanol-NH3 (97:3). After 10 minutes centrifugation at 15,000 g, the supernatant was vacuum dried and applied to TLC (Merck 254, Toluol, acetic acid, water: 2:2:1). […] The calculated tissue concentrations were: liver: 1.9, heart: 2.29 and brain cortex: 0.47 fluol Tetrac/μg protein. […]

[6] = system: GH mRNA; test: Northern blot, growth hormone mRNA in pituitary; assay type: in vivo, rat
Method: as §1
Total RNA extraction and Northern Blot hybridization Total RNA was extracted with the method of Chomczynski and Sacchi (Chomczynski, P. and Sacchi, N. Anal. Biochem. (1987) 162: 156-159). […]
as §2

[7] = Tissue concentrations of Tetrac after 125I Tetrac injection; assay type: in vivo, rat; conditions: for Calculated tissue concentration of Tetrac: calculated with highest serum Tetrac level (406 pmol/ml)
Method: Monodeiodinase type 1 activity was measured in liver homogenates using 1 μM rT3 and 1 mM DTT with 10 min of incubation, whereas for heart, 0.01 μM rT3 and 10 mM DTT with 1 hour of incubation. Monodeiodinase type 2 activity was measured in brown adipose tissue (BAT) and cerebral cortex using 1 nM rT3, 10 mM DTT and 1 mM propylthiouracil (PTU) with 1 hour of incubation. Protein concentrations were measured by the method of Bradford (Bio-Rad Laboratories GmbH, Munich, Germany) with bovine gammaglobulin as the protein standard. In order to study the effect of circulating Tetrac on the enzyme activities, 2 rats were injected intraperitoneally with 10 μCi ^125I Tetrac and killed 6 hours later. The tissue homogenates were extracted with 3 volumes of ethanol-NH3 (97:3). After 10 minutes centrifugation at 15,000 g, the supernatant was vacuum dried and applied to TLC (Merck 254, Toluol, acetic acid, water: 2:2:1). In order to calculate the tissue concentrations, the highest serum Tetrac levels were used (406 pmol/ml). The calculated tissue concentrations were: liver: 1.9, heart: 2.29 and brain cortex: 0.47 fluol Tetrac/μg protein.

## O=C(O)Cc1cc(I)c(Oc2cc(I)c(O)c(I)c2)c(I)c1 [Tetrac, 3,3′,5,5′-tetraiodothyroacetic acid]
[1]; one patient withdrawn from T4, Tetrac 2100 μg/day, after 21 days
  TSH after treatment: 6.3 mU/L
[1]; same patient, start of Tetrac treatment
  TSH before treatment (after T4 withdrawal): 151.0 mU/L
[2]; compared with T4, p<0.01
  Increase of heart weight relative to body weight with increasing infusion rates (in words): less efficient
[2]; 1.5 nmol/day/100 g BW
  Heart: 0.76 ± 0.02 g
[2]; 4.5 nmol/day/100 g BW
  Heart: 0.83 ± 0.04 g
[2]; 13.5 nmol/day/100 g BW
  Heart: 0.94 ± 0.03 g
[2]; 40.5 nmol/day/100 g BW
  Heart: 0.98 ± 0.06 g
[2]; infusion 1.5 nmol/day/100 g BW
  Heart/BW (%): 0.31 ± 0.01%
[2]; infusion 4.5 nmol/day/100 g BW
  Heart/BW (%): 0.33 ± 0.02%
[2]; infusion 13.5 nmol/day/100 g BW
  Heart/BW (%): 0.36 ± 0.01%
[2]; infusion 40.5 nmol/day/100 g BW
  Heart/BW (%): 0.39 ± 0.02%
[3]
  SERCA 2a mRNA levels, response to increasing doses (in words): weak response
[4]
  Inhibition of the mRNA levels of monodeiodinase type 2 (in words): clearly less efficient
[5]
  Monodeiodinase type 2 activity, % of the full activity: 90.5%
[6]
  GH mRNA, Tetrac/T4 (activity of Tetrac in % of T4): 71%
[6]; infused rats, adjusted group mean at the mean Ln (TSH) concentration
  GH mRNA, adjusted mean: 20280 arbitrary units
[7]; brain cortex homogenates
  Concentration of Tetrac in brain cortex homogenates: less than 1 fmol/μg protein
[7]; brain cortex
  Calculated tissue concentration of Tetrac: 0.47 fluol Tetrac/μg protein
[7]; heart
  Calculated tissue concentration of Tetrac: 2.29 fluol Tetrac/μg protein
[7]; liver
  Calculated tissue concentration of Tetrac: 1.9 fluol Tetrac/μg protein
